# What was measured:
# [1] = system: retinal cells of streptozotocin-induced diabetic rats; assay: Degree of apoptosis of the retina by TUNEL in diabetic rats; type: in vivo, Sprague Dawley rats; conditions: for retinal degeneration (TUNEL positive cells, confocal images): after 14 days of treatment, FIG. 4; for % Apoptotic cells GCL: ganglion cell layer; for % Apoptotic cells GCL / % Apoptotic cells INL / % Apoptotic cells ONL / % Apoptotic cells RPE: 14 days of treatment; for % Apoptotic cells INL: inner nuclear layer; for % Apoptotic cells ONL: outer nuclear layer; for % Apoptotic cells RPE: retinal pigment epithelium
# Description: (§1) Streptozotocin (STZ), 60 mg/Kg, was administered to Sprague Dawley rats. The animals were divided in four groups as detailed in Table 1:
# (§2) Two days after STZ was administered, animals were treated daily with one or two drops of vehicle (Group 2), eye drops of example 4 (Group 3) or eye drops of example 5 (Group 4) for additionally 14 days. Healthy control animals were only treated daily with one or two drops of vehicle (Group 1).
# (§3) On day 14, the animals were sacrificed and ocular tissues paraffined. Glial activation and number of apoptotic cells were evaluated as markers of the first step in the development of diabetic retinopathy: retinal neurodegeneration [Carrasco et al., Diabetes Care; 2007, 30(11): 1-7].
# The evaluation of the degree of apoptosis of the retina after 14 days of treatment was done by using the TUNEL (“Terminal Transferase dUTP Nick-End Labeling”) technique. The In Situ Cell Death Detection Kit (Roche Diagnostics, Mannheim, Germany) was used. Ocular sections were desparaffined, rehydrated and washed in PBS. Three confocal images (40×) corresponding to a 317.13 μm×317.13 μm surface were obtained for each section. The total number of nuclei and nuclei positive for TUNEL were quantified with the Image J software (http://rsbweb.nih.gov/ij). Staining with propidium iodide (PI) was done for examining the nucleus morphology and discard false positives. […] Retinal degeneration correlated with a higher number of apoptotic cells (brightest labeling means TUNEL positive) observed in streptozotocin-induced diabetic rats (Group 2).
# The increment in the percentage of apoptotic cells is significant in diabetic rats (Group 2). Topical ocular treatment with somatostatin (Group 3) or octreotide (Group 4) reduced the number of apoptotic cells till control levels (Group 1).
# [2] = system: Glial Fibrillar Protein (GFAP); assay: Glial activation by GFAP immunofluorescence (confocal microscopy) in retina of diabetic rats; type: in vivo, Sprague Dawley rats; conditions: for glial cell activation (GFAP expression, confocal images): day 14, ganglion cell layer, FIG. 3; for GFAP fluorescence value: day 14, normalized to the analysed area (21705.33 μm^2), diabetic Group 2 6871±159, healthy Group 1 2095±26
# Description: as §1, §2, §3
# Glial activation was determined analysing Glial Fibrillar Protein (GFAP) immunofluorescence by confocal microscopy. Ocular sections of 7 μm thickness were fixed on high adherent coverslips (Visionbiosystems, Newcastle Upon Tyne, UK). They were desparaffined, rehydrated and washed in phosphate buffer saline (PBS). Unspecific unions were blocked incubating the samples for 1 h in PBS 1% BSA (Bovine Serum Albumin) 0.5% Triton X-100. Thereafter, the primary rabbit anti-human GFAP antibody (Sigma, Madrid, Spain) diluted in the blocking buffer (1:100) was incubated for 36 h at 4° C. After three washings for 5 min with PBS, sections were incubated with a secondary antibody anti […] labelled with Alexa Fluor® 488 (Invitrogen, Eugene, Oreg.) for 1 h at room temperature. Labelled sections were washed and mounted with fluorescent medium containing 4,6-diamidino-2-phenylindole (DAPI) for staining cell nuclei (Vector Laboratories, Burlingame, Calif.). The sections positives for GFAP were captured in a confocal microscope (FV1000, Olympus. Hamburg, Germany) obtaining optical sections with a 488 nm laser for Alexa 488 and a 405 nm laser for DAPI. GFAP fluorescence was quantified in each image with the Fluoview ASW 1.4 software (Olympus, Hamburg, Germany). Results were normalized to the analysed area (21705.33 μm^2).
# [3] = system: streptozotocin-induced diabetic rats; assay: Electroretinography after topical ocular treatment in diabetic rats; type: in vivo, Sprague Dawley rats; parameters: implicit time of the b-wave at 0 db compared to pretreatment: unit not given beside the values; conditions: for difference between the amplitude of the second OP (OP2) of the b-wave at 0 db / implicit time of the b-wave at 0 db compared to pretreatment: STZ 60 mg/kg rats; for difference between the amplitude of the second OP (OP2) of the b-wave at 0 db: FIG. 2; for implicit time of the b-wave at 0 db compared to pretreatment: after 14 days of treatment; for b-wave amplitude at −10 db and 0 db / b-wave amplitude at −30 db: compared to the diabetic group
# Description: as §1, §2
# Electroretinography is a technique used clinically to evaluate retinal function in diabetic retinopathy. Several parameters can be affected in early stages of the disease: implicit time, amplitude and oscillatory potentials [Tzekov et al., Survey of Ophthalmology, 1999, 44(1): 53-60]. The increment of the implicit time and diminishment of amplitude of the oscillatory potentials (OPs) are also observed in streptozotocin-induced diabetic rats [Hancok et al., Investigative Ophthalmology & Visual Science, 2004, 45(3): 1002-1008].
# [4] = Evaluation of the concentration of topical ophthalmic somatostatin in the retina (Western blot); type: in vivo, C57BL/6 mice; conditions: eye drops of example 1, 1 drop of 5 μL twice a day for 5 days in right eye vs placebo in left eye; 2 hours after last dosage; Western blot densitometry
# Description: Eight-week old C57BL/6 mice were used. The handling and care of the animals was carried out following the Institut de Recerca del Hospital Universitari Vall d'Hebron protocol and the European Economic Community and A.R.V.O. (Association for Research in Vision and Opthalmology) international guidelines (order 86/609/CEE). The animals were kept in individual cages in the animal facilities at a controlled temperature (20°) and humidity (60%), under constant cycles of light-darkness which last 12 hours and had free access to food and drink. The eye drops of somatostatin-14 from example 1 (1 drop of 5 μL) were administered to the right eye and the placebo (saline solution) to the left eye. Two drops were administered per day, one in the morning and another in the evening, for 5 days. The animals were euthanized by cervical dislocation under anesthetic 2 hours after the last dosage. Immediately afterwards the eyeballs were extracted and were frozen at −80° until handling. […] The quantity of somatostatin-14 in the retina was determined by Western blot. […] A densitometric analysis was carried out (Densitometer GS-800. Bio-Rad. Laboratories, Hercules, Calif., USA) and the results are expressed as arbitrary units. […] On control mice, who received the placebo in both eyes, no differences were detected in the concentration of somatostatin between both eyes.
SMILES,"retinal degeneration (TUNEL positive cells, confocal images) [1]",% Apoptotic cells GCL [1] [%],% Apoptotic cells INL [1] [%],% Apoptotic cells ONL [1] [%],% Apoptotic cells RPE [1] [%],"glial cell activation (GFAP expression, confocal images) [2]",GFAP fluorescence value [2],difference between the amplitude of the second OP (OP2) of the b-wave at 0 db ([3]; Left eye (2 drops per day)),implicit time of the b-wave at 0 db compared to pretreatment ([3]; Left eye (2 drops per day)),difference between the amplitude of the second OP (OP2) of the b-wave at 0 db ([3]; Right eye (1 drop per day)),implicit time of the b-wave at 0 db compared to pretreatment ([3]; Right eye (1 drop per day)),b-wave amplitude at −10 db and 0 db [3],b-wave amplitude at −30 db [3],amount of somatostatin in the retina [4]
C[C@@H](O)[C@@H]1NC(=O)[C@H](CCCCN)NC(=O)[C@@H](Cc2c[nH]c3ccccc23)NC(=O)[C@H](Cc2ccccc2)NC(=O)[C@@H](NC(=O)[C@H](N)Cc2ccccc2)CSSC[C@@H](C(=O)N[C@H](CO)[C@@H](C)O)NC1=O [octreotide],prevented retinal degeneration,7,0.1,5,11,prevented glial cell activation,1696±48,55.1,1.1,45.5,8.8,effective only at the highest dose,prevented the diminishment,–
"C[C@H](N)C(=O)NCC(=O)N[C@H]1CSSC[C@@H](C(=O)O)NC(=O)[C@H](CO)NC(=O)[C@H]([C@@H](C)O)NC(=O)[C@H](Cc2ccccc2)NC(=O)[C@H]([C@@H](C)O)NC(=O)[C@H](CCCCN)NC(=O)[C@H](Cc2c[nH]c3ccccc23)NC(=O)[C@H](Cc2ccccc2)NC(=O)[C@H](Cc2ccccc2)NC(=O)[C@H](CC(N)=O)NC(=O)[C@H](CCCCN)NC1=O [somatostatin, somatostatin-14]",prevented retinal degeneration,14,1,3,6,prevented glial cell activation,2514±90,68.7,4.9,44.8,9.0,prevented the diminishment,prevented the diminishment,greater in the treated eye on both animals

# Source: patent publication US9216208B2, “Topical ophthalmic peptide formulation” (BCN Peptides, S.A., priority 2009, dated 2015)
